We go through twelve compounds from patent US8349896B2, “Aspirin-triggered lipid mediators” (The Brigham and Womens's Hospital, Inc., priority 2000, dated 2013).

Read-outs that look alike come from different tables or passages of the source.

For test [1], the system named is human PMN. Briefly: LTB4-stimulated PMN transendothelial migration. Type of test: cell-based. The conditions noted are these: for potency relative to the compounds derived from EPA: similar to results of FIGS. 9A (transmigration) and 9C (air pouch), no data shown; for rank order of potency, inhibition of PMN migration: tested in parallel for direct comparison; for IC50: human PMN, FIG. 9A. The procedure:
Human PMNs were freshly isolated from venous blood of healthy volunteers (that declined taking medication for 2 wk before donation; Brigham and Women's Hospital protocol no. 88-02642) by Ficoll gradient and enumerated. Human umbilical vein or microvascular ECs (HUVECs or HMVECs, respectively) were cultured for transendothelial migration (Reference 10), HMVEC monolayers (one, two, or three passages) were seeded (−2×10^5 cells/cm^2) on polycarbonate permeable supports precoated with 0.1% gelatin for incubations with NSAIDs and PUFA.

Test [2] has as its target T1, Recombinant Human COX-2 (Homo sapiens, UniProt P35354).
T1 construct: host or cells: Sf9 insect cells, baculovirus; microsomal fractions
T1 sequence (P35354 18-604): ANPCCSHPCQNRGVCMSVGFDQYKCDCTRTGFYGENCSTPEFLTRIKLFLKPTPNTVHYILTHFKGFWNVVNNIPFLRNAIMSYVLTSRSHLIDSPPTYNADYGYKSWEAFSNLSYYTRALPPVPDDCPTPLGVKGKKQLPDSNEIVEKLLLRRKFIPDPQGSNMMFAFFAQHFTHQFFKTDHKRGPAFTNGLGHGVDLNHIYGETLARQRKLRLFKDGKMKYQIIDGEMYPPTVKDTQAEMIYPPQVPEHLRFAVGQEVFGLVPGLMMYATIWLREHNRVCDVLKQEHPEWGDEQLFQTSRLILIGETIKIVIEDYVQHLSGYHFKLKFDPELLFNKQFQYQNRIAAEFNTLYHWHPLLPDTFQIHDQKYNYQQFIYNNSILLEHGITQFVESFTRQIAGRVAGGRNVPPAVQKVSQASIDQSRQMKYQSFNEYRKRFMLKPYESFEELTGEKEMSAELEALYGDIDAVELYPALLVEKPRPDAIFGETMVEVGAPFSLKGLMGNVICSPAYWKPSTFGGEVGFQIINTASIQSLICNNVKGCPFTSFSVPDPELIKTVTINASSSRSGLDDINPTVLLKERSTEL
Briefly: Conversion of PUFA to hydroxy compounds by recombinant COX-2 incubated with NSAID. Type of test: biochemical. The conditions noted are these: for 11R-HEPE, conversion of n-3 C20:5 / 15R-HEPE, conversion of n-3 C20:5 / 18R-HEPE, conversion of n-3 C20:5: Table 2, mean amount +/− SEM. Here is the method: Human recombinant COX-2 (a gift from Dr. R. A. Copeland, DuPont Merck, Wilmington, Del.) was overexpressed in […] (American Type Culture Collection) with microsomal fractions (˜8 μl) suspended in Tris (100 mM, pH 8.0) as in Reference 21. George, H. J., D. E. Van Dyk, R. A. Straney, J. M. Trzaskos, and R. A. Copeland. 1996. Expression purification and characterization of recombinant human inducible prostaglandin G/H synthase from baculovirus-infected insect cells. Protein Expres. Purif. 7:19-26. NSAIDs were incubated (i.e., ASA ˜1 mM) at 37° C. for 30 min before addition of PUFA (20 μM), and conversions were also monitored using 1-^14C-labeled C20:4 (See FIGS. 2A and 2B) or C20:5 (NEN Life Science Products) (See FIGS. 2C and 2D).

Test [3] addresses T2, recombinant human LTB4 receptor (Homo sapiens, UniProt Q15722).
T2 construct: expressed in transfected cells
Briefly: [3H]LTB4 competition binding, HEK-293 cells stably expressing receptor. Particulars: HEK293 cells.

Test [4] relates to PMN infiltration into murine dorsal air pouches. Briefly: TNF-α induced leukocyte/PMN infiltration into murine dorsal air pouch. The conditions noted are these: 100 ng intravenously into tail; TNF-α 100 ng/pouch; lavage at 4 h. Type of test: in vivo, FVB mice. Here is the method:
Inflammatory exudates were initiated with intrapouch injection of TNF-α (R&D Systems) into 6 d dorsal air pouches with (Reference 16) 6-8-wk-old male FVB mice (fed standard rodent diet 5001 containing 0.26% n-3 fatty acids) followed by ASA (500 μg) at 3.5 h and 300 μg C20:5/pouch at 4 h. At 6 h, pouches were lavaged (3 ml saline), and exudate cells were enumerated and activated 94 μM A23187, 37° C., 20 min). Inhibition of TNF-α-stimulated (100 ng/pouch, FVB strain) PMN infiltration with intravenous tail injection of either 18 R-hydroxyeicosapentaenoic acid (HEPE), 5, 12, 18R-HEPE, or 15-epi-LXA, analogue was determined (Reference 16) with pouch lavages taken at 4 h.

Where [5] appears, read: PUFA 20 μM, ASA ~1 mM or NS398 100 uM, mean ± SEM.
Setting [6] is: PUFA 20 μM, ASA ~1 mM, mean ± SEM.
Setting [7] is: Table 1, PUFA 20 μM, ASA ~1 mM or NS398 100 uM, mean ± SEM.

T2 sequence (Q15722 whole entry): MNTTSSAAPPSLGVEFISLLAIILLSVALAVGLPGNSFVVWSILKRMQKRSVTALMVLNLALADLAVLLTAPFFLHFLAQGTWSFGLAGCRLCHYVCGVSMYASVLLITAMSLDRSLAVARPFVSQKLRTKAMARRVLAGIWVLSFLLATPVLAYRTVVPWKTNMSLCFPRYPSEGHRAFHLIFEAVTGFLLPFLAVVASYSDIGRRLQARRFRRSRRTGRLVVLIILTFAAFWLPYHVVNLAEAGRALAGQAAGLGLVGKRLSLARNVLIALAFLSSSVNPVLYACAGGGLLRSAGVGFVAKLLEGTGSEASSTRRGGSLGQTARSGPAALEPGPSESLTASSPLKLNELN

As to `CC/C=C\CC(O)/C=C/C=C\C/C=C\C/C=C\C/C=C\CCC(=O)O` (stereo not drawn) [17-hydroxy-DHA], the “potency relative to the compounds derived from EPA” value in test [1] is given as “potencies equivalent to those described above for the compounds derived from EPA”.
In the case of `CC(=O)Oc1ccccc1C(=O)O` [ASA, aspirin], in test [2] (C20:5), the “increase in 18R-HEPE on ASA acetylation of COX-2” value was “approximately twofold increase” and the “reduction in 11R-HEPE on ASA acetylation of COX-2” value is over 85%. In addition, in test [2] (setting [5]), the “11R-HETE (ω-9) generated from C20:4” value was 1.4 ± 1.6 ng/incubation and the “15R-HETE (ω-5) generated from C20:4” value was found to be 234.0 ± 112.5 ng/incubation. Moreover, in test [2] (setting [6]), the “9-HODE (ω-9) generated from C18:2” value came to 25.2 ± 17.8 ng/incubation and the “13-HODE (ω-5) generated from C18:2” value is 2.9 ± 0.6 ng/incubation. Further, in test [2] (setting [7]), the “11R-HEPE (ω-9) generated from C20:5” value is given as 5.4 ± 3.3 ng/incubation, the “15R-HEPE (ω-5) generated from C20:5” value turned out to be 16.8 ± 5.8 ng/incubation and the “18R-HEPE (ω-2) generated from C20:5” value was 16.2 ± 3.3 ng/incubation. Also, in test [2], the “11R-HEPE, conversion of n-3 C20:5” value amounted to 5.5 ± 2.3 ng; the “15R-HEPE, conversion of n-3 C20:5” value is 8.0 ± 5.6 ng; the “18R-HEPE, conversion of n-3 C20:5” value amounted to 12.2 ± 4.6 ng.
Turning to `CC/C=C\C/C=C\C[C@@H](O)/C=C/C=C/C=C\[C@@H](O)CCCC(=O)O` [LTB5], the IC50 in test [3] amounted to 0.5 µM.
In the case of `O=C(O)CCC[C@H](O)[C@H](O)/C=C/C=C/C=C\C=C\[C@H](O)COc1ccc(F)cc1` [15-epi-LXA4 stable analogue, 15(5)-16(para-fluoro)-phenoxy-LXA4], the “rank order of potency, inhibition of PMN migration” value in test [1] is given as 15-epi-LXA4 stable analogue >5,12,18R-tri-HEPE >18R-HEPE. Also, the “inhibition of PMN infiltration into murine dorsal air pouches (in words)” value (from here on “inhibition … (in words)”) in test [4] is recorded as “potent inhibitor of PMN infiltration”.
In the case of `CC/C=C\C=C\C(O)C/C=C\C/C=C\C/C=C\C/C=C\CCC(=O)O` (stereo not drawn) [16-hydroxy-DHA], the “potency relative to the compounds derived from EPA” value in test [1] is given as “potencies equivalent to those described above for the compounds derived from EPA”.
The same measure, in the same setting: next, `CC/C=C\C/C=C\CC(O)/C=C/C=C\C/C=C\C/C=C\CCC(=O)O` (stereo not drawn) [14-hydroxy-DHA]: “potencies equivalent to those described above for the compounds derived from EPA”.
As for `CC[C@@H](O)/C=C/C=C\C/C=C\C/C=C\C/C=C\CCCC(=O)O` [Compound 18R-HEPE, 18R-hydroxyeicosapentaenoic acid], in test [1] (read-out: IC50, inhibition of LTB4-stimulated PMN transendothelial migration), the IC50 was over 1 µM. Moreover, the “rank order of potency, inhibition of PMN migration” value in test [1] is given as 15-epi-LXA4 stable analogue >5,12,18R-tri-HEPE >18R-HEPE. Also, the “competition with 3H-LTB4 (in words)” value in test [3] was “did not”. Further, the “inhibition … (in words)” value in test [4] is “some activity in vivo”.
Regarding `CC[C@@H](O)/C=C/C=C\C[C@@H](O)/C=C/C=C/C=C\[C@@H](O)CCCC(=O)O` [5,12,18R-triHEPE], the IC50 in test [1] (read-out: apparent IC50, inhibition of LTB4-stimulated PMN transendothelial migration) was 0.005 to 0.05 µM; in test [3], 0.5 µM. The “rank order of potency, inhibition of PMN migration” value in test [1] is given as 15-epi-LXA4 stable analogue >5,12,18R-tri-HEPE >18R-HEPE. For the same compound, in test [4], the “inhibition … (in words)” value is given as “potent inhibitor of PMN infiltration”.
As to `CC(=O)Nc1ccc(O)cc1` [Acetaminophen], in test [2], the “11R-HEPE, conversion of n-3 C20:5” value came to 6.7 ± 3.0 ng; the “15R-HEPE, conversion of n-3 C20:5” value turned out to be 4.6 ± 1.2 ng; the “18R-HEPE, conversion of n-3 C20:5” value is 5.5 ± 2.4 ng. In test [2] (recombinant COX-2 and C20:5, concentrations as high as 2 mM, n=3), the “reduction of levels of 15R- and 18R-HEPE versus absence of inhibitors” value is given as “three to eight times”.
For `CC/C=C\C/C=C\C=C\C(O)C/C=C\C/C=C\C/C=C\CCC(=O)O` (stereo not drawn) [13-hydroxy-DHA], in test [1], the “potency relative to the compounds derived from EPA” value is on record as “potencies equivalent to those described above for the compounds derived from EPA”.
On the same count and under the same terms, next, 19-hydroxy-DHA: “potencies equivalent to those described above for the compounds derived from EPA”.
As for `CCC(O)/C=C/C=C\C/C=C\C/C=C\C/C=C\C/C=C\CCC(=O)O` (stereo not drawn) [20-hydroxy-DHA], the “potency relative to the compounds derived from EPA” value in test [1] is given as “potencies equivalent to those described above for the compounds derived from EPA”.
